The source made the active and inactive calls. Some results are limits rather than exact numbers.

Test [1] concerns the target Protein disulfide-isomerase (Homo sapiens, UniProt P07237). Kind of test: inhibition of PDI-mediated insulin reduction – biochemical, turbidity, dry powder samples, set 2, confirmation (AID 652146).
Test [2] is described as follows: inhibitors acting on PAX2 in cells – cell-based, plate reader, dry powder samples, selectivity assay for PAX8 inhibitor project, dose response (AID 743048).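 Also: HEK293 cells carrying a WT1 promoter luciferase reporter driven by expressed Pax2; potency is for inhibition of Pax2 driven reporter signal.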 The class given is functional.
Test [3] is described as follows: PAX5 cellular inhibition readout – cell-based, plate reader, dry powder samples, selectivity assay for PAX8 inhibitor project, dose response (AID 743047).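 Also: HEK293 cells carrying a Pax5 driven CD19 promoter luciferase reporter; potency of inhibitors that lower reporter luminescence.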 The class given is functional.
Test [4] in a line: OV-90 cell viability loss – plate reader, dry powder, SA8, PAX8 inhibitor project, dose response (AID 743149). The class given is functional, cell-based.
Another test relates to HeLa. The test can be described thus: viability loss in HeLa cells – cell-based, 24 h, cherry-picked samples, cytotoxicity control, dose response (AID 504726).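 Also: potency for cytotoxicity as loss of luminescence signal.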 Type of test: functional. The following applies: Homo sapiens.
The next test addresses ORF 73 (Human herpesvirus 8, UniProt O40947). The test can be described thus: KSHV LANA DNA-binding disruption – biochemical, fluorescence polarization, cherry-picked samples, dose response (AID 504725).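 Also: fluorescence polarization of a labeled DNA duplex reporting LANA DNA binding; potency is for inhibitors that block LANA binding to the DNA.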 On the set-up: species or system Human gammaherpesvirus 8. (In general: Polarisation of emitted light reports the rotation of a fluorescent probe.)
Test [5] addresses Dual specificity tyrosine-phosphorylation-regulated kinase 1A (Rattus norvegicus, UniProt Q63470). Type of test: biochemical, Homo sapiens.
A short description of test [6]: viability loss in HeLa cells – cytotoxicity control for MgcRacGAP inhibitor project, dose response (AID 624300). The class given is functional.
Test [7] concerns the target T1, Rac GTPase-activating protein 1 (Homo sapiens, UniProt Q9H0H5).
T1 sequence (Q9H0H5 whole entry): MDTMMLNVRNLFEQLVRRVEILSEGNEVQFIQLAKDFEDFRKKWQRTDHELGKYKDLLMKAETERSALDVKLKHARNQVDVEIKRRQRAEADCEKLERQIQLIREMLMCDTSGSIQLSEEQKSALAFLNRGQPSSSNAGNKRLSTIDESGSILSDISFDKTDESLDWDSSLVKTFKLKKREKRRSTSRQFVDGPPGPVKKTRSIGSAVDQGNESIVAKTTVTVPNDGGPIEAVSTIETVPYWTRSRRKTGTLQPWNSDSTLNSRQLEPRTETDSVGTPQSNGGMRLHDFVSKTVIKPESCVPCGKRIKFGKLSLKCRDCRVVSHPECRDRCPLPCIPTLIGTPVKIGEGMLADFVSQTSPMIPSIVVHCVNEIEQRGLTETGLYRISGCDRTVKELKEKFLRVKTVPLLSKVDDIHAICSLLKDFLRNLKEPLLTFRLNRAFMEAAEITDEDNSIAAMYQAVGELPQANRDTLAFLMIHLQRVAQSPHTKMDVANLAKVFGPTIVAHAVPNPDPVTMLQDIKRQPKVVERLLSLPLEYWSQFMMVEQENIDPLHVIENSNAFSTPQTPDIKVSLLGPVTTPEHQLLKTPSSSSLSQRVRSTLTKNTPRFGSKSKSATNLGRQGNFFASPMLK
The test can be described thus: blockers of MgcRacGAP-driven Rac1 GTP hydrolysis – biochemical, ADP Hunter fluorescence, primary and confirmatory, confirmation (AID 624330). The class given is functional.

Test [8] addresses SWI/SNF-related matrix-associated actin-dependent regulator of chromatin subfamily A member 2 (Homo sapiens, UniProt P51531). The test can be described thus: Luminescence-based cell-based high throughput dose response assay to identify activators of the function of SWI/SNF related, matrix associated, actin dependent regulator of chromatin, subfamily a, member 2 (SMARCA2, BRM). The class given is functional.

Test [9] can be described thus: Counterscreen for activators of the function of SWI/SNF related, matrix associated, actin dependent regulator of chromatin, subfamily a, member 2 (SMARCA2, BRM): Luminescence-based cell-based high throughput dose response assay to identify non-selective compounds using the VP16 reporter assay. The class given is functional. (Counterscreens check selectivity or assay interference.)

Test [10] has as its target T2, Histone-lysine N-methyltransferase NSD2 (Homo sapiens, UniProt O96028).
T2 sequence (O96028 whole entry): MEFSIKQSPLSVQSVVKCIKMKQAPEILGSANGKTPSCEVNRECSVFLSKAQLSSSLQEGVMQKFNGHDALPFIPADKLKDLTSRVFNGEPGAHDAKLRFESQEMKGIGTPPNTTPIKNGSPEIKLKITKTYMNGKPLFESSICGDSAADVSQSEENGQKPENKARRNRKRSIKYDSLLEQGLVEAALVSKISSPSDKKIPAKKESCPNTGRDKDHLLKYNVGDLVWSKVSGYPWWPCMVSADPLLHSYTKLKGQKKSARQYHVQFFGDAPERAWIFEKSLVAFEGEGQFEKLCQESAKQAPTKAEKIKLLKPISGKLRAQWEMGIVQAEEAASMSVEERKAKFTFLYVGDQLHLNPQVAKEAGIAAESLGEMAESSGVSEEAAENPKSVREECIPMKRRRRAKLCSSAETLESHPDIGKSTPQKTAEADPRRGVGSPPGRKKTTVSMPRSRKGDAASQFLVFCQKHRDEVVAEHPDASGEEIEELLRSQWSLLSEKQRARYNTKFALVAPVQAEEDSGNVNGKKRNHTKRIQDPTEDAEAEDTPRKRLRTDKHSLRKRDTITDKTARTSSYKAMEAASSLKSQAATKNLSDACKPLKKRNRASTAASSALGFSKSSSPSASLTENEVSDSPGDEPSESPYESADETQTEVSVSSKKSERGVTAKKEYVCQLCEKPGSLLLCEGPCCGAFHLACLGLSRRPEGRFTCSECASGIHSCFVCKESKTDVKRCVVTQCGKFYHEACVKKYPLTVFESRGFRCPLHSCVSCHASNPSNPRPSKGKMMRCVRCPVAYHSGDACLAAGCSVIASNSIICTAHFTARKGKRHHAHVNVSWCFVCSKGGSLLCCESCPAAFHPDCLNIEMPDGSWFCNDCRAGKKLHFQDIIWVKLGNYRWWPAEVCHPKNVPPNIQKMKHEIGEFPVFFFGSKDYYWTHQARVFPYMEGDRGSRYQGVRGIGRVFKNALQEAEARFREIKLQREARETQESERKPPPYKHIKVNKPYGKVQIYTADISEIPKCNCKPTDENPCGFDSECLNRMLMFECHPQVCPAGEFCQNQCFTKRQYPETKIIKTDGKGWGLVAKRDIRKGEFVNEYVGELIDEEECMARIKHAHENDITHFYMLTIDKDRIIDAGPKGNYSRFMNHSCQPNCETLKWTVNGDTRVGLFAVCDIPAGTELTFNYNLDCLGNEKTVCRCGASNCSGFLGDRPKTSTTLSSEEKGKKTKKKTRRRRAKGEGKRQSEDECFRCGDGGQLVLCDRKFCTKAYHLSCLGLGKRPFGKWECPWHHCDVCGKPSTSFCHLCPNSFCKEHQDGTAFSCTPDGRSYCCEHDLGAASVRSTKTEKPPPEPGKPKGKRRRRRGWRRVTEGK
Type of test: biochemical.

The target in test [11] is Tyrosyl-DNA phosphodiesterase 2 (Homo sapiens, UniProt O95551). The test can be described thus: potency against TDP2 phosphodiesterase activity – biochemical, epi absorbance, IC50, dose response (AID 743297).
The nature of test [12]: viability of uninfected HEp-2 cells – cell-based, HTS, cytotoxicity control for RSV inhibitor project, dose response (AID 2410). The class given is functional. Particulars: human respiratory syncytial virus.
The subject of test [13] is Streptococcus sp. 'group A'. Kind of test: Streptococcus pyogenes SK(-)GAS viability under kanamycin – luminescence, BacTiterGlo, confirmation, counter-screen for streptokinase expression inhibitor project, dose response (AID 1900). Type of test: functional, organism-based.
Another test addresses T3, Streptokinase A (Streptococcus pyogenes serotype M1, UniProt P10520).
T3 sequence (P10520 whole entry): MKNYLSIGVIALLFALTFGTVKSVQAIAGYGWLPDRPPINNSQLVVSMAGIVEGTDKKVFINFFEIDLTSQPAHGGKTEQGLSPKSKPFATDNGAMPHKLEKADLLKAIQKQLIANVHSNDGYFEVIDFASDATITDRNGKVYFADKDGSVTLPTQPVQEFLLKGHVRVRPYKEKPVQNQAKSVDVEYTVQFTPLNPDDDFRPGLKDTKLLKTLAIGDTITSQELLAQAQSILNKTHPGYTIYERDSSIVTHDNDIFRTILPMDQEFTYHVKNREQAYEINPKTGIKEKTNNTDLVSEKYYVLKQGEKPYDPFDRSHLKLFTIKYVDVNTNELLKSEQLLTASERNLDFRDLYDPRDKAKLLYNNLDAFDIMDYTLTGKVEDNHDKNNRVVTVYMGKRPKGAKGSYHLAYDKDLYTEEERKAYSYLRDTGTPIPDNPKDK
Kind of test: viability-normalized secreted streptokinase activity reduction – plasminogen activation absorbance, OD405, dose response (AID 1914).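 Also: secreted streptokinase activity via plasminogen activation per viability signal from cell pellet.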 Type of test: functional, Streptococcus pyogenes M1 GAS.

Test [14] deals with T4, Calpain-2 catalytic subunit (Sus scrofa, UniProt P43367).
T4 sequence (P43367 whole entry): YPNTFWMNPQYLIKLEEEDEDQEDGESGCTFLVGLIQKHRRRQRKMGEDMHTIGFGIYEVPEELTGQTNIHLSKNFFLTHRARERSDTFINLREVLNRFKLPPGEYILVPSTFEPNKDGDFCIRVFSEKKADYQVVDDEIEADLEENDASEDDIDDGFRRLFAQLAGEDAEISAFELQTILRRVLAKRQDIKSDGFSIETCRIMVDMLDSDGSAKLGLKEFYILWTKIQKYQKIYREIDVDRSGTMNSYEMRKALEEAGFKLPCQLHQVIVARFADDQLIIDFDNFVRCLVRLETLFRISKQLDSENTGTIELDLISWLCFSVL
Kind of test: m-calpain protease blockers, concentration series – biochemical, fluorogenic peptide substrate, dose response (AID 1420). Type of test: functional.

The subject of another test is Streptococcus. The test can be described thus: GAS UMAA2166 growth inhibition – luminescence, BacTiterGlo, counter-screen for streptokinase expression inhibitor project, dose response (AID 1915).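 Also: potency for reduction of bacterial viability or growth.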 Type of test: functional, organism-based.
In a further test the target is Major prion protein (Homo sapiens, UniProt P04156). Type of test: functional, cell-based.

For orientation: AC50 means the concentration at which the activity in the assay is half-maximal. As to `C=CCOc1ccc(CN2CCC(CCOc3ccccc3)(C(=O)O)CC2)cc1Cl`, the AC50 in test [1] was 20 µM (active).

With `COc1cccc(C#Cc2ccc([C@@H]3[C@@H](C#N)N(C(=O)C4CCCC4)[C@@H]3CO)cc2)c1`, the AC50 in [2] is 31.6 µM (active); in test [3], 30.7 µM (active); in test [4], > 70 µM (inactive).

In general, CC50 refers to the concentration giving 50% cytotoxicity. The term IC50 denotes the midpoint of a concentration-inhibition curve. The EC50 is the concentration at which the effect is half-maximal. On to `CCN(CC)CCCNc1ccc2ncn3c4ccc(O)cc4c(=O)c1c23`, for which the AC50 with HeLa was > 350 µM (inactive); on ORF 73 it was 2.05 µM (active); in [5], 2.77 µM (active); in test [10] it was 12.7 µM (active). In addition, the CC50 in test [6] is 89.3 µM (active). In addition, the results for the IC50 in test [7] and in test [11] were 56.4 µM (active) and > 128 µM (inactive), respectively. The EC50 in test [8] was 20.5 µM (inactive); in [9] it was > 91.2 µM (inactive).

As to `Cc1nc(-c2ccc(S(=O)(=O)Nc3ccc(Br)cc3Cl)s2)cs1`, in test [12], the CC50 was 16.6 µM (active). For the same molecule, the values for the concentration for a half-maximal effect (EC50) (in [13]; on Streptokinase A; with Streptococcus) were 3.04 µM (active), 3.98 µM (active) and 11.9 µM (active), respectively. Moreover, the IC50 in test [14] was 12.2 µM (active); on Major prion protein, 12.5 µM (inactive); in “cells”, > 138 µM (inactive).

The values above are taken from ChEMBL document CHEMBL1201862, “PubChem BioAssay data set” (2004).
